Key:
U-87 MG = experiment: Antiproliferative activity against human U87 MG cell line; assay type: functional, cell-based, U-87MG ATCC
HeLa = experiment: Antiproliferative activity against human HeLa cell line; assay type: functional, cell-based
B16 = experiment: Antiproliferative activity against mouse B16 cell line; assay type: functional, cell-based
SiHa = experiment: Antiproliferative activity against human SiHa cell line; assay type: functional, cell-based
HUVEC = experiment: Antiproliferative activity against HUVEC cell line; assay type: functional, cell-based; conditions: Homo sapiens
DLD-1 = experiment: Antiproliferative activity against human DLD1 cell line; assay type: functional, cell-based
NIH3T3 = experiment: Antiproliferative activity against mouse NIH3T3 cell line; assay type: functional, cell-based

Row | Compound | IC50 (U-87 MG) | IC50 (HeLa) | IC50 (B16) | IC50 (DLD-1; read-out: IC50) | IC50 (DLD-1) | IC50 (SiHa) | IC50 (HUVEC) | IC50 (NIH3T3)
1 | O=c1oc2c3c4c(cc2cc1[N+](=O)[O-])CCCN4CCC3 | > 70 µM | > 70 µM | > 70 µM | > 70 µM |  | > 70 µM | > 70 µM | > 70 µM
2 | CCN(CC)c1ccc2cc(C(C)=O)c(=O)oc2c1 | > 70 µM | > 70 µM | > 70 µM | > 70 µM |  | > 70 µM | > 70 µM | > 70 µM
3 | O=Cc1cc2c3c(c1O)CCCN3CCC2 | > 70 µM | > 70 µM | > 70 µM | > 70 µM |  | > 70 µM | 35.4 µM | > 70 µM
4 | CCN(CC)c1ccc2cc(-c3nc4ccccc4s3)c(=O)oc2c1 | > 70 µM | > 70 µM | > 70 µM | > 70 µM |  | > 70 µM | > 70 µM | > 70 µM
5 | CCN(CC)c1ccc2c(C#N)c(-c3nc4ccccc4s3)c(=O)oc2c1 | > 70 µM | > 70 µM | > 70 µM | > 70 µM |  | > 70 µM | 4.8 µM | > 70 µM

Now those with a lower IC50 (U-87 MG), led by results:

Row | IC50 (U-87 MG) | IC50 (HeLa) | IC50 (B16) | IC50 (DLD-1; read-out: IC50) | IC50 (DLD-1) | Compound | IC50 (SiHa) | IC50 (HUVEC) | IC50 (NIH3T3)
6 | 15 µM | > 70 µM | 12.6 µM | > 70 µM |  | CCN(CC)c1ccc2cc(-c3nc4ccccc4[nH]3)c(=O)oc2c1 | 62.1 µM | 9.6 µM | 9.3 µM
7 | 0.08 µM | 0.47 µM | 0.08 µM |  | 0.09 µM | CC(=O)O[C@H]1C(=O)[C@@]2(C)[C@H]([C@H](OC(=O)c3ccccc3)[C@]3(O)C[C@H](OC(=O)[C@H](O)[C@@H](NC(=O)c4ccccc4)c4ccccc4)C(C)=C1C3(C)C)[C@]1(OC(C)=O)CO[C@@H]1C[C@@H]2O [PACLITAXEL] | 3.5 µM | 0.06 µM | 1.29 µM
8 | 33.4 µM | 11.6 µM | 8.9 µM | 35.2 µM |  | O=c1oc2c3c4c(cc2cc1-c1nc2ccccc2[nH]1)CCCN4CCC3 | 14.6 µM | 3.3 µM | 41.4 µM
